Source: publication PMC3409094 (Journal of medicinal chemistry, 2012)

Legend:
[1] = target: three MDR protease variants (M1-M3); test: HIV-1 protease inhibition assay; assay type: biochemical; conditions: against all three MDR protease variants (M1-M3)
[2] = tested on: wild-type and drug-resistant HIV-1 strains; test: Antiviral assays, all viruses tested summarised; assay type: cell-based
[3] = against all the viruses tested (wild-type and MDR HIV-1)

Row | Structure (SMILES) | MDR Ki [1] | EC50 [2, 3] | EC50 ([2]; Human immunodeficiency virus 1) [nM]
1 | CC[C@H](C)CN(C[C@@H](O)[C@H](Cc1ccccc1)NC(=O)OCCNC(=O)C(Cl)Cl)S(=O)(=O)c1ccc(OC)cc1 [13c, 2-(2,2-dichloroacetamido)ethyl (2S,3R)-3-hydroxy-4-(4-methoxy-N-((S)-2-methylbutyl)phenylsulfonamido)-1-phenylbutan-2-ylcarbamate] | excellent potencies in the low nM ranges |  | 
2 | CC[C@H](C)CN(C[C@@H](O)[C@H](Cc1ccccc1)NC(=O)OC[C@@H](C)C(=O)OC)S(=O)(=O)c1ccc(OC)cc1 [13f, (R)-methyl 3-((((2S,3R)-3-hydroxy-4-(4-methoxy-N-((S)-2-methylbutyl)phenylsulfonamido)-1-phenylbutan-2-yl)carbamoyl)oxy)-2-methylpropanoate] | excellent potencies in the low nM ranges | modest antiviral potency | 
3 | CC[C@H](C)CN(C[C@@H](O)[C@H](Cc1ccccc1)NC(=O)OC[C@@H]1CCC(=O)N1)S(=O)(=O)c1ccc(OC)cc1 [13j, ((S)-5-oxopyrrolidin-2-yl)methyl ((2S,3R)-3-hydroxy-4-(4-methoxy-N-((S)-2-methylbutyl)phenylsulfonamido)-1-phenylbutan-2-yl)carbamate] | excellent potencies in the low nM ranges | modest antiviral potency | 
4 | CC[C@H](C)CN(C[C@@H](O)[C@H](Cc1ccccc1)NC(=O)OCCN1CCNC1=O)S(=O)(=O)c1ccc2ncsc2c1 [14g, 2-(2-oxoimidazolidin-1-yl)ethyl ((2S,3R)-3-hydroxy-4-(N-((S)-2-methylbutyl)benzo[d]thiazole-6-sulfonamido)-1-phenylbutan-2-yl)carbamate] |  | modest antiviral potency | 
5 | CC[C@H](C)CN(C[C@@H](O)[C@H](Cc1ccccc1)NC(=O)OC[C@@H]1CCC(=O)N1)S(=O)(=O)c1ccc2ncsc2c1 [14j, ((S)-5-oxopyrrolidin-2-yl)methyl ((2S,3R)-3-hydroxy-4-(N-((S)-2-methylbutyl)benzo[d]thiazole-6-sulfonamido)-1-phenylbutan-2-yl)carbamate] | excellent potencies in the low nM ranges |  | 15.5 to 35.6
